Test results published in patent US20240010639A1, “TRIAZINE DIONE DERIVATIVE, PREPARATION METHOD THEREFOR AND APPLICATION THEREOF IN MEDICINE” (Jiangsu Hengrui Pharmaceuticals Co., Ltd., priority 2020, published 2024).
Where two headings read alike, the source gives them in different places.

Test: Toxicokinetic evaluation of 14-day repeated intragastric administration to SD rats
Assay type: in vivo
Settings: both sexes, SD, rat, plasma, po; for Vd/F at 7 day: Day 7, read-out: Apparent volume of distribution Vz/F; for CL/F at 7 day: Day 7, read-out: Clearance CL/F; for half-life at 7 day: Day 7, read-out: Half-life T1/2 (converted); for MRT at 7 day: Day 7, read-out: Residence time MRT; for Vd/F at 14 day: Day 14, read-out: Apparent volume of distribution Vz/F; for CL/F at 14 day: Day 14, read-out: Clearance CL/F; for half-life at 14 day: Day 14, read-out: Half-life T1/2 (converted); for Cmax at 14 day: Day 14, read-out: Plasma concentration Cmax; for MRT at 14 day: Day 14, read-out: Residence time MRT
Procedure: With SD rats as test animals, the plasma concentrations of the test compounds and the concentrations of the original forms of the compounds in the administration solutions were measured by LC/MS/MS at different time points after intragastric administration. The toxicokinetic performance of the compound disclosed herein was studied in SD rats and its toxicokinetic profile was evaluated.
24 SD rats, an equal number of males and females, evenly divided into 6 groups of 4, an equal number of males and females in each group, provided by Vital River Laboratory Animal Technology Co., Ltd.
A certain amount of the compound of Example 16 was measured out, and 15% PEG400 and 85% (10% TPGS+1% HPMC K100LV) were added to prepare a pale yellow homogenous suspension.
A certain amount of compound MYK-461 was measured out, and 0.5% MC was added to prepare a colorless clear solution.
The compound of Example 16 was intragastrically administered at doses of 5 mg/kg, 15 mg/kg and 30 mg/kg, at a volume of 10 mL/kg.
Compound MYK-461 was administered at doses of 0.5 mg/kg, 1.5 mg/kg and 3 mg/kg, at a volume of 10 mL/kg.
0.2-mL blood samples were collected from the orbit 0.5 h, 1.0 h, 2.0 h, 4.0 h, 8.0 h and 24.0 h after administration on day 1, and before administration and 0.5 h, 1.0 h, 2.0 h, 4.0 h, 8.0 hi, 24.0 h after administration on day 7 and day 14, placed into EDTA-K2 anticoagulation tubes, and centrifuged at 10,000 rpm for 1 min (4° C.), and plasma was isolated within 1 h and stored at −20° C. before analysis. The blood collection to centrifugation process was performed under ice bath conditions. Two hours after administration, feeding was resumed.
Determination of plasma concentrations in SD rats after intragastric administration of different concentrations of test compounds: 20 μL of SD rat plasma at each time point post-dose was mixed with 50 μL of an internal standard solution (internal standard for the compound of Example 16: 100 ng/mL verapamil; internal standard for compound MYK-461: 100 ng(mL camptothecin) and 200 μL of acetonitrile; the mixture was vortexed for 5 min and centrifuged at 3700 rpm for 10 min, and 1 μL of the supernatant was taken for LC/MS/MS analysis.

[1] = 0.5 mg/kg, repeated intragastric 0.5 mg/kg
[2] = 1.5 mg/kg, repeated intragastric 1.5 mg/kg
[3] = 3 mg/kg, repeated intragastric 3.0 mg/kg

CC(C)n1c(=O)cc(N[C@@H](C)c2ccccc2)[nH]c1=O [MYK-461, reference compound] gave a Vd/F (0.5 mg/kg, repeated intragastric 0.5 mg/kg, Day 1, read-out: Apparent volume of distribution Vz/F) of 13.8 L/kg, an AUC (0.5 mg/kg, repeated intragastric 0.5 mg/kg, Day 1, read-out: Area under curve AUC) of 491 ng·h/mL and a CL/F (0.5 mg/kg, repeated intragastric 0.5 mg/kg, Day 1, read-out: Clearance CL/F) of 12.9 mL/min/kg. For the same compound, the half-life (0.5 mg/kg, repeated intragastric 0.5 mg/kg, Day 1, read-out: Half-life T1/2 (converted)) was 13.3 h, the Cmax (0.5 mg/kg, repeated intragastric 0.5 mg/kg, Day 1, read-out: Plasma concentration Cmax) was 40.2 ng/mL and the MRT (0.5 mg/kg, repeated intragastric 0.5 mg/kg, Day 1, read-out: Residence time MRT) was 19 h. For the same compound, the Vd/F at 7 day [1] was 8.41 L/kg, the AUC (0.5 mg/kg, repeated intragastric 0.5 mg/kg, Day 7, read-out: Area under curve AUC) was 888 ng·h/mL and the CL/F at 7 day [1] was 7.46 mL/min/kg. It also gave a half-life at 7 day [1] of 14.7 h, a Cmax (0.5 mg/kg, repeated intragastric 0.5 mg/kg, Day 7, read-out: Plasma concentration Cmax) of 51.7 ng/mL and an MRT at 7 day [1] of 21.3 h. It also gave a Vd/F at 14 day [1] of 5.86 L/kg, an AUC (0.5 mg/kg, repeated intragastric 0.5 mg/kg, Day 14, read-out: Area under curve AUC) of 1560 ng·h/mL and a CL/F at 14 day [1] of 3.06 mL/min/kg. The half-life at 14 day [1] was 32.9 h, the Cmax at 14 day [1] was 89.3 ng/mL and the MRT at 14 day [1] was 47.3 h. It also gave a Vd/F at 1 day (1.5 mg/kg, repeated intragastric 1.5 mg/kg, Day 1, read-out: Apparent volume of distribution Vz/F) of 9.56 L/kg, an AUC (1.5 mg/kg, repeated intragastric 1.5 mg/kg, Day 1, read-out: Area under curve AUC) of 2580 ng·h/mL and a CL/F at 1 day (1.5 mg/kg, repeated intragastric 1.5 mg/kg, Day 1, read-out: Clearance CL/F) of 6.39 mL/min/kg. For the same compound, the half-life at 1 day (1.5 mg/kg, repeated intragastric 1.5 mg/kg, Day 1, read-out: Half-life T1/2 (converted)) was 19.1 h, the Cmax at 1 day (1.5 mg/kg, repeated intragastric 1.5 mg/kg, Day 1, read-out: Plasma concentration Cmax) was 140 ng/mL and the MRT at 1 day (1.5 mg/kg, repeated intragastric 1.5 mg/kg, Day 1, read-out: Residence time MRT) was 28.2 h. It also gave a Vd/F at 7 day [2] of 4.8 L/kg, an AUC (1.5 mg/kg, repeated intragastric 1.5 mg/kg, Day 7, read-out: Area under curve AUC) of 5180 ng·h/mL and a CL/F at 7 day [2] of 3.58 mL/min/kg. For the same compound, the half-life at 7 day [2] was 20.5 h, the Cmax at 7 day (1.5 mg/kg, repeated intragastric 1.5 mg/kg, Day 7, read-out: Plasma concentration Cmax) was 269 ng/mL and the MRT at 7 day [2] was 30.2 h. It also gave a Vd/F at 14 day [2] of 5.03 L/kg, an AUC (1.5 mg/kg, repeated intragastric 1.5 mg/kg, Day 14, read-out: Area under curve AUC) of 6320 ng·h/mL and a CL/F at 14 day [2] of 2.57 mL/min/kg. The half-life at 14 day [2] was 26.2 h, the Cmax at 14 day [2] was 333 ng/mL and the MRT at 14 day [2] was 38.5 h. It also gave a Vd/F at 1 day (3 mg/kg, repeated intragastric 3.0 mg/kg, Day 1, read-out: Apparent volume of distribution Vz/F) of 8.93 L/kg, an AUC (3 mg/kg, repeated intragastric 3.0 mg/kg, Day 1, read-out: Area under curve AUC) of 5210 ng·h/mL and a CL/F at 1 day (3 mg/kg, repeated intragastric 3.0 mg/kg, Day 1, read-out: Clearance CL/F) of 4.91 mL/min/kg. It also gave a half-life at 1 day (3 mg/kg, repeated intragastric 3.0 mg/kg, Day 1, read-out: Half-life T1/2 (converted)) of 28.5 h, a Cmax at 1 day (3 mg/kg, repeated intragastric 3.0 mg/kg, Day 1, read-out: Plasma concentration Cmax) of 297 ng/mL and an MRT at 1 day (3 mg/kg, repeated intragastric 3.0 mg/kg, Day 1, read-out: Residence time MRT) of 43.1 h. The Vd/F at 7 day [3] was 4.36 L/kg, the AUC (3 mg/kg, repeated intragastric 3.0 mg/kg, Day 7, read-out: Area under curve AUC) was 12500 ng·h/mL and the CL/F at 7 day [3] was 1.97 mL/min/kg. The half-life at 7 day [3] was 190 h, the Cmax at 7 day (3 mg/kg, repeated intragastric 3.0 mg/kg, Day 7, read-out: Plasma concentration Cmax) was 628 ng/mL and the MRT at 7 day [3] was 275 h. It also gave a Vd/F at 14 day [3] of 3.8 L/kg, an AUC (3 mg/kg, repeated intragastric 3.0 mg/kg, Day 14, read-out: Area under curve AUC) of 16000 ng·h/mL and a CL/F at 14 day [3] of 1.3 mL/min/kg. The half-life at 14 day [3] was 46.5 h, the Cmax at 14 day [3] was 767 ng/mL and the MRT at 14 day [3] was 68.1 h.
